Positions of bridges follow the written chain, without caps; N, C: chain ends. No end group written: not given here.
Assays:
FXIIa = target: T1, FXIIa (Homo sapiens, UniProt P00748); assay: Enzyme kinetics, chromogenic substrate, FXIIa; format: biochemical; conditions: sample 10 μM
T1 sequence (P00748 373-615 limits assumed): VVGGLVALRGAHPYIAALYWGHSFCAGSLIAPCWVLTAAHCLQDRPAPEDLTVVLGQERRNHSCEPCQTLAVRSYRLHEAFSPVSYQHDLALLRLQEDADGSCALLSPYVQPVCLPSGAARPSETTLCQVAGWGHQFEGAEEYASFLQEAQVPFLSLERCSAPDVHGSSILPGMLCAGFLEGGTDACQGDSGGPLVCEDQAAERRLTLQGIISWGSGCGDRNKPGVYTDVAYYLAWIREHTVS
Method: (§1) In a 96-well plate, 10 μL of the sample and 10 μL of FXIIa with a final concentration of 0.2 μM were mixed in 40 μL of buffer (100 mM NaCl, 50 mM Tris-HCl (pH 8.0), 5 mM CaCl2), allowed to stand at room temperature for 5 min. A mixture of 30 μL of buffer and 10 μL of chromogenic substrate with a final concentration of 0.04 mM was added to each well, the final volume was 100 μL. The kinetics of the coagulation reaction was measured using an Epoch (BioTek) microplate reader and GEN CHS 1.09 software, OD 405 nm, 20 min, with 47 s intervals. The concentration of the sample was 10 μM.

kallikrein = assay: Enzyme kinetics, kallikrein; format: biochemical
Method: [Worded in the source for another target; this target is reported under the same test.] as §1

thrombin = thrombin (Homo sapiens, UniProt P00734); assay: Enzyme kinetics, thrombin; format: biochemical; conditions: sample 10 μM
plasminogen = assay: Enzyme kinetics, plasminogen; format: biochemical; conditions: sample 10 μM
FXa = FXa (Homo sapiens, UniProt P00742); assay: Enzyme kinetics, FXa; format: biochemical; conditions: sample 10 μM
Sequence of FXa (P00742 235-488 limits assumed): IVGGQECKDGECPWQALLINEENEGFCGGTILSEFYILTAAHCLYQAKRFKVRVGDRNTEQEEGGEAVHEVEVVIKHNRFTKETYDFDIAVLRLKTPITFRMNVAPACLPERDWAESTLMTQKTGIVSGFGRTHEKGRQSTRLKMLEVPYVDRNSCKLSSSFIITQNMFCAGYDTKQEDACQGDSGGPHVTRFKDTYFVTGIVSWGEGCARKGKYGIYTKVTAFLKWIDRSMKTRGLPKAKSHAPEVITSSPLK
Sequence of FXa (P00742 41-179 partner limits assumed): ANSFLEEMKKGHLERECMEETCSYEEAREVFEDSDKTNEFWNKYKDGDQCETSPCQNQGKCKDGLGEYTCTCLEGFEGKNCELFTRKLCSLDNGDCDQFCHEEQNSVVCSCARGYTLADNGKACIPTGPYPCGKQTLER

[1] = test system: endogenous coagulation pathway (normal plasma); assay: APTT experiment; conditions: OD 650 nm
Method: (§2) The APTT reagent was equilibrated to room temperature and the APTT reagent was mixed by gentle inversion; 50 μL of the reagent, 50 μL of normal plasma and 5 μL of the sample were mixed and incubated in a 37° C. water bath for 3 min; 50 μL of pre-warmed CaCl2 solution was added, mixed immediately; the OD 650 nm was detected with a microplate reader. PT experiment: prothrombin reagent was pre-warmed at 37° C. for 15 min; 50 μL of normal plasma and 5 μL of the sample were incubated in a 37° C. water bath for 3 min; 100 μL of pre-warmed prothrombin reagent was added, mixed immediately; OD 650 nm was detected with a microplate reader.

normal plasma = assay: PT experiment; conditions: OD 650 nm
Method: as §2

tail thrombosis = assay: Carrageenan-induced rat tail thrombosis model; format: in vivo, Kunming mice; conditions: for effect on tail thrombosis (average length of thrombus) compared with control group: each time point 12, 24, 36, 48 h, Sylvestin 2 and 4 mg/kg, heparin sodium 500 U/mouse, t-test p<0.05
Method: [Worded in the source for another organism; this organism is reported under the same test.] Kunming mice were used as experimental animals, body weight 25 to 30 g (provided by the Experimental Animal Center of Kunming Medical College). After one week of housing, they were randomly divided into groups (n=6), half male and half female. One group was a physiological saline control group, the sample groups were Sylvestin synthesized in Example 2 at a dose of 2 mg/kg and 4 mg/kg, respective, and the positive control was given heparin sodium (Beijing Dingguo Changsheng Biotechnology Co., Ltd.), 500 U/mouse. 30 minutes after tail vein administration, carrageenan (carrageenan, type I, Sigma, dissolved in physiological saline to a concentration of 1%) was injected from the abdomen of the mice at a dose of 60 mg/kg, since the thrombosis rate was >90% in a low temperature environment, the housing temperature was set at 17.5° C. After 12, 24, 36, and 48 h, the average length of thrombus was determined according to the color change of the tail skin. Referring to FIG. 1, the average length of thrombus in each group increased with time. […] Data processing was Graphpad Prime 5, data mean±SD, t-test (*p<0.05).

[2] = test system: cerebral ischemia and reperfusion injury; assay: Acute cerebral ischemic intraluminal thread model; format: in vivo, Kunming mice; conditions: 1, 3, 5 mg/kg i.v. tail vein; 1 h ischemia, assessed at 24 h
Method: Kunming mice (30 to 35 g) were anesthetized with 2% sodium pentobarbital (80 mg/kg). After medium-deep anesthesia, a midline neck incision was made, the skin and subcutaneous tissue of the mice were incised layer by layer, the sternocleidomastoid muscle was separated, the anterior belly of the digastric muscle was incised off, the right common carotid artery (CCA), internal carotid artery (ICA) and external carotid artery (ECA) were exposed, an electric coagulator was used to coagulate thyroid artery and pharyngeal artery over the ECA and they were cut off. Ligation of the distal end of the ECA was performed, seton was placed at the proximal end, CCA and ICA were temporarily closed using a clip, the ECA was cut off, an intraluminal thread was inserted into the ICA from the ECA stump, ligation of the ECA stump was performed, the artery clip of the ICA was removed, pushed inward and upward from the ICA. […] Cerebral ischemia for 24 h, and the neurological deficit score was assessed and recorded according to the Bederson Scale assessment: 0 is no dysfunction; 1 is being unable to extend the right forelimb; 2 is rotating to right; 3 is dumping to right; 4 is no autonomous activity with disturbance of consciousness; 5 is death. […]

[3] = Isoelectric focusing electrophoresis; format: physicochemical
Method: 3.3 The purity of the purified Haemadipsa sylvestris antithrombotic peptide was determined by HPLC, the molecular weight was determined by fast atom bombardment mass spectrometry, the isoelectric point was determined by isoelectric focusing electrophoresis, and the amino acid sequence was determined by automatic amino acid sequencer.

Substance | inhibitory effect on FXIIa (FXIIa) | Ki (kallikrein; read-out: inhibition constant on kallikrein) | inhibitory effect on kallikrein (kallikrein; sample 10 μM) | inhibitory effect on thrombin (thrombin) | inhibitory effect on plasminogen (plasminogen) | inhibitory effect on FXa (FXa) | effect in APTT experiment [1] | effect in PT experiment (normal plasma) | inhibition rate against thrombus versus dose (tail thrombosis; 2 mg/kg and 4 mg/kg) | inhibition rate against thrombosis over time (tail thrombosis; 12 to 48 h) | change of length of thrombus from 12 h to 24 h (tail thrombosis) | inhibitory effect on thrombosis compared with control group after 48 h (tail thrombosis; 48 h, tail vein) | effect on tail thrombosis (average length of thrombus) compared with control group (tail thrombosis; tail vein) | injury caused by cerebral ischemia and reperfusion (Bederson score, ischemic volume) [2] | isoelectric point [3]
TSEPVCACPKMLFWVCGKDGETYTHPCIAKCHNVEVEHDGKCK (disulfide 6-31, 8-27, 16-42) [Sylvestin] | can inhibit | 17.8 nM | can inhibit | no inhibitory effect | no inhibitory effect | no inhibitory effect | concentration-dependent effect | no effect | increased as concentration increased | decreased over time | increased slightly | significant inhibitory effect | statistically significant | effectively alleviate the injury | 6.28
heparin sodium [reference compound] | – | – | – | – | – | – | – | – | – | – | doubled | – | statistically significant | – | –
